The record followed here is PMC6274375, “Two New Pentacyclic Triterpene Saponins from the Leaves of Akebia trifoliata” (Molecules, 2016).

One data set concerns the target α-glucosidase. In words: α-Glucosidase inhibition assay (PNPG substrate). Format: biochemical. The conditions noted are these: pH 6.8, 37 °C, read-out: α-glucosidase inhibitory activity IC50. As for the experimental part:
The a-glucosidase inhibitory activity of 1–7 were determined spectrophotometrically in a 96-well microtiter plate based on p-nitrophenyl-α-D-glucopyranoside (PNPG) as a substrate following the method described in literature with slight modifications. In brief, α-glucosidase (20 μL, 0.8 U/mL) and various concentrations (500, 250, 125, 62.5, 31.25, 15.625 µg/mL) of tested compounds (120 μL) in 67 mM phosphate buffer (pH 6.8) were mixed at room temperature for 10 min. Reactions were initiated by addition of 5.0 mM PNPG (20 μL). The reaction mixture was incubated for 15 min at 37 °C in a final volume of 160 μL. Then, 0.2 M Na2CO3 (80 μL) was added to the incubation solution to stop the reaction. The activities were detected in a 96-well plate, and the absorbance was determined at 405 nm (for p-nitrophenol). The negative blank was set by adding phosphate buffer instead of the sample via the same way as the test. […] The blank was set by adding phosphate buffer instead of the α-glucosidase using the same method. Inhibition rate (%) = [(ODnegative control − ODblank) − (ODtest − ODtest blank)]/(ODnegative blank − ODblank) × 100%. IC50 values of the samples were calculated using the Microsoft Office Excel soft.

Data set [1] in a line: MTT cytotoxicity assay, A549 cells. As to conditions: human, mean ± SD (n = 3). Format: cell-based. On the procedure: (§1) Compounds 1–7 were testeded for their cytotoxity against A549 (human lung adenocarcinoma), HeLa (human cervical carcinoma) and HepG2 (human liver hepatocellular carcinoma) cell lines. The three tumor cell lines were obtained from Kunming Institute of Zoology, Chinese Academy of Sciences. The cytotoxic activity of tested chemicals were assayed according to the MTT method using 96 well plates. Briefly, the cells were cultured in RPMI-1640 medium, supplemented with 10% fetal bovine serum in a humidified atmosphere with 5% CO2 at 37 °C. 100 μL adherent cells at the density of 5 × 10^4 cell/mL was seeded into each well of 96-well cell culture plates and incubated in 5% CO2 at 37 °C for 24 h to form a monolayer on the flat bottoms. Then, the supernatant per well was removed and subsequently added with 100 μL fresh medium and 100 μL medium containing a test compound. The plate was then incubated in 5% CO2 at 37 °C. After 72 h, 20 μL of 5 mg/mL MTT in DMSO was added into each well and incubated for 4 h. The supernatant per well was carefully removed and 150 μL DMSO was added. The plate was then vortex shaken for 15 min to dissolve blue formazan crystals. The optical density (OD) of each well was measured on a Genois microplate reader (Tecan GENios, Männedorf, Switzerland) at the wavelength of 570 nm. All experiments were performed in triplicate and adriamycin was used as a positive control. In each experiment, each of the tumor cell lines was exposed to the test compound at concentrations 50, 25, 12.5, 6.25, 3.125, 1.5625 µg/mL. The inhibitory rate of cell growth was calculated according to the following formula: Inhibition rate (%) = (ODcontrol − ODtreated)/ODcontrol × 100%. IC50 values were calculated by SPSS 16.0 statistic software. The values were based on three individual experiments and expressed as means ± standard deviation (SD).
On the technique in general: Tetrazolium dyes change colour on reduction, which living cells bring about.

Data set [2] relates to human tumor A549, HeLa and HepG2 cell lines. In words: MTT cytotoxicity, summary statements over the three cell lines. In kind it is cell-based. The conditions noted are these: A549, HeLa and HepG2. On the procedure: as §1
Assay in data set [3]: as above
In kind it is cell-based, human. As to conditions: human, A549, HeLa and HepG2 cells (range over the three cell lines). As for the experimental part:
as §1

A short description of data set [4]: MTT cytotoxicity assay, HeLa cells. In kind it is cell-based. As to conditions: human, mean ± SD (n = 3). On the procedure: as §1
The nature of data set [5]: MTT cytotoxicity assay, HepG2 cells. The conditions noted are these: human, mean ± SD (n = 3). In kind it is cell-based. As for the experimental part:
as §1

[6] abbreviates: range over A549, HeLa and HepG2 and over both compounds, read-out: Cytotoxicity IC50 values, range over all three cancer cell lines.
Setting [7] is: range over the three cell lines and over both compounds, as given in abstract, read-out: Cytotoxicity IC50 values, range over A549, HeLa and HepG2.

Molecules are shown by their SMILES.

For the compound `CC1(C)CC[C@]2(C(=O)O)CC[C@]3(C)C(=CCC4[C@@]5(C)C[C@@H](O)[C@H](O)[C@@](C)(C=O)C5CC[C@]43C)C2C1` (stereo partly drawn) [Compound 5, 2α,3β-dihydroxy-23-oxo-olean-12-en-28-oic acid], the IC50 (commonly the point on the concentration scale where inhibition reaches its midpoint) at α-glucosidase was 47 µM. Further, the IC50 at 72 h in data set [1] is 30.2 ± 4.55 µM; in data set [3] (setting [6]) it was 22.7 to 38.1 µM; in data set [3] (setting [7]), 23 to 38 µM; in data set [4], 22.7 ± 1.96 µM; in data set [5], 38 ± 7.57 µM. The “In vitro cytotoxicity, result in words” value in data set [2] is on record as “moderate in vitro cytotoxicity”.

For the compound `C=C1CC[C@]2(C(=O)O)CC[C@]3(C)C(=CCC4[C@@]5(C)C[C@@H](O)[C@H](O)[C@@](C)(C=O)C5CC[C@]43C)C2C1` (stereo partly drawn) [Compound 6, 2α,3β-dihydroxy-23-oxo-30-norolean-12,20 (29)-dien-28-oic acid], the IC50 at α-glucosidase was determined as 220 µM. Moreover, the IC50 at 72 h in data set [1], in data set [4] and in data set [5] was greater than 100 µM in each case.

For the compound `CC1(C)CC[C@]2(C(=O)O)CC[C@]3(C)C(=CC[C@@H]4[C@@]5(C)C[C@@H](O)[C@H](O)[C@@](C)(CO)[C@@H]5CC[C@]43C)[C@@H]2C1` [Compound 7, arjunolic acid], the IC50 at α-glucosidase was determined as 40 µM. In addition, the IC50 at 72 h in data set [1] is 33.6 ± 3.13 µM; in data set [3] (setting [6]) it was 22.7 to 38.1 µM; in data set [3] (setting [7]) it was 23 to 38 µM; in data set [4], 24.4 ± 1.49 µM; in data set [5], 38.1 ± 1.63 µM. Also, in data set [2], the “In vitro cytotoxicity, result in words” value is listed as “moderate in vitro cytotoxicity”.
